One experiment relates to Sir-13. As to the kind of experiment: Whole plant sugarbeet response to postemergence ALS-inhibiting herbicides. Type of experiment: in vivo, Beta vulgaris L.
Experiment [1] has as its system Rel-1. The experiment is described as above. It is filed as in vivo, Beta vulgaris L. As to conditions: Rel-1 whole plant, herbicide applied postemergence.
In another experiment the test system is sensitive cells. As to the kind of experiment: Cell selection on herbicide-supplemented solid B1 media. As to conditions: 50 nM in solid B1 media, 8-12 weeks, dim fluorescent light. Type of experiment: cell-based, Beta vulgaris L. The source says: Rel-1 (Regenerating East Lansing-1) is a highly regenerable male fertile sugar beet line used for initial cell selection for herbicide-resistant mutant to the sulfonylureas and is used as a sensitive control for most experiments. CR1-B This sugar beet isolate was developed by plating Rel-1 cells on chlorsulfuron-containing media. This variant is sulfonylurea resistant with modest resistance to the triazolopyrimidine herbicide, flumetsulam, but no imidazolinone resistance. This variant has been described by Saunders et al. (Crop Sci. 32:1357-1360) and Hart et al. (Weed Sci. 40:378-383 and 41:317-324). The SU resistance gene has been labeled Sur. 93R30B This isolate was developed by plating cells of a highly regenerable, Sur homozygous sugar beet plant (descendant of CR1-B) on media containing imazethapyr. EL-49 East Lansing 49, released by the USDA in 1993. Sugar beet line homozygous for the Sur gene, used for a sulfonylurea-resistant, imazethapyr- sensitive control. • a. Plants were selected as source materials for somaclonal selection based on their ability to generate callus under high cytokinin conditions (in B1 media) and regenerate shoots from callus. […]

For another experiment, the system named is EL-49. As to the kind of experiment: Shoot culture herbicide resistance (shoot injury and fresh weight on M20 media). It is filed as cell-based, Beta vulgaris L. The procedure:
(§1) In step 7, shoot cultures were assessed for herbicide resistance by placing three small, consistently sized shoot cuttings on each plate of M20 media supplemented with logarithmically increasing concentrations of imidazolinone herbicide, sulfonylurea or triazolopyrimidine sulfonanilide ranging from 1 nM to 0.1 mM. 93R30 culture responses were compared to that of shoot cultures of a sensitive control (Rel-1) and a chlorsulfuron resistant, imidazolinone sensitive control (EL-49). Shoot cultures were maintained at 20 µE/m^2 s light intensity at 25°C for 3 weeks. Shoot culture was determined by rating shoot injury and fresh weight 3 weeks after transfer to selective media. Magnitude of herbicide resistance was determined by the ratio of resistant to sensitive I50 values (the herbicide concentration causing 50 percent injury).

Experiment [2] has as its system 93R30B. Described as above. Type of experiment: cell-based, Beta vulgaris L. On the procedure:
as §1

Experiment [3] has as its system Rel-1. Described as above. Type of experiment: cell-based, Beta vulgaris L. As to conditions: Beta vulgaris, 504 h; Rel-1 sensitive control; herbicide concentration causing 50% injury to the shoot culture, 3 weeks; read-out: I50. On the procedure: as §1
Experiment [4] has as its system 93R30B. Kind of experiment: Whole plant sugarbeet response to postemergence ALS-inhibiting herbicides. Type of experiment: in vivo, Beta vulgaris L.

Take `CCc1cnc(C2=NC(C)(C(C)C)C(=O)N2)c(C(=O)O)c1` (stereo not shown) [Imazethapyr]: the resistance was 100 fold with Sir-13 (Sir-13 single mutant, postemergence to whole plants) and 300 fold in the experiment on 93R30B [4] (SB double mutant, postemergence to whole plants). Also, the R/S stood at 100 X in the experiment on Sir-13 (Sir-13 whole plant, postemergence, relative to Rel-1); 3X with EL-49 (EL-49, ratio of resistant to sensitive control (Rel-1) I50 values, shoot culture, 30240 min); 3600X with 93R30B [2] (93R30B, ratio of resistant to sensitive control (Rel-1) I50 values, shoot culture, 30240 min); 300 X in the experiment with 93R30B [4] (93R30B (SB) whole plant, postemergence, relative to Rel-1). The same molecule displayed an I50 with Rel-1 [1] of 0.5 g ha^-1. Besides, the cell survival result in the experiment on sensitive cells is reported as “all sensitive cells died”. Also, the IC50 in the experiment with EL-49 (Beta vulgaris, 504 h, EL-49, herbicide concentration causing 50% injury to the shoot culture, 3 weeks, read-out: I50) turned out to be 53 nM; with 93R30B [2] (Beta vulgaris, 504 h, 93R30B, herbicide concentration causing 50% injury to the shoot culture, 3 weeks, read-out: I50) it was 64 µM; with Rel-1 [3], 18 nM. The level of resistance amounted to 3 fold in the experiment on EL-49 (EL-49 in shoot culture, 30240 min) and 3600 fold with 93R30B [2] (93R30B in shoot culture, 30240 min).

Values taken from patent EP0960190B1, “IMI[…] RESISTANT SUGAR BEET PLANTS” (Michigan State University, priority 1996, dated 1998).
